According to ChEMBL document CHEMBL4118072, “2-Substituted-thio-N-(4-substituted-thiazol/1H-imidazol-2-yl)acetamides as BACE1 inhibitors: Synthesis, biological evaluation and docking studies” (Eur J Med Chem, 2017):

Columns and labels:
in vitro = settings: PAMPA
Description: Permeability of the compound at 25 ug/ml after 18 hrs by PAMPA

Beta-secretase 1 [1] = biological target: T1, Beta-secretase 1 (Homo sapiens, UniProt P56817); assay: Inhibition of BACE1 (unknown origin) at 10 uM using Rh-EVNLDAEFK-Quencher as substrate after 60 mins by FRET assay relative to control
Beta-secretase 1 [2] = biological target: T1, Beta-secretase 1; assay: Inhibition of BACE1 (unknown origin) at 50 uM using Rh-EVNLDAEFK-Quencher as substrate after 60 mins by FRET assay relative to control
Beta-secretase 1 [3] = biological target: T1, Beta-secretase 1; assay: Inhibition of BACE1 (unknown origin) using Rh-EVNLDAEFK-Quencher as substrate after 60 mins by FRET assay
Beta-secretase 1 [4] = biological target: T1, Beta-secretase 1; assay: Binding affinity to BACE1 (unknown origin) by SPR method
[5] = Cytotoxicity against HEK293 cells assessed as decrease in cell viability after 72 hrs by CellTiter Glo luminescent assay; assay type: cell-based; settings: human
Beta-secretase 1 [6] = biological target: T1, Beta-secretase 1; assay: Inhibition of BACE1 (unknown origin) at 1 uM using Rh-EVNLDAEFK-Quencher as substrate after 60 mins by FRET assay

T1 sequence (P56817 whole entry): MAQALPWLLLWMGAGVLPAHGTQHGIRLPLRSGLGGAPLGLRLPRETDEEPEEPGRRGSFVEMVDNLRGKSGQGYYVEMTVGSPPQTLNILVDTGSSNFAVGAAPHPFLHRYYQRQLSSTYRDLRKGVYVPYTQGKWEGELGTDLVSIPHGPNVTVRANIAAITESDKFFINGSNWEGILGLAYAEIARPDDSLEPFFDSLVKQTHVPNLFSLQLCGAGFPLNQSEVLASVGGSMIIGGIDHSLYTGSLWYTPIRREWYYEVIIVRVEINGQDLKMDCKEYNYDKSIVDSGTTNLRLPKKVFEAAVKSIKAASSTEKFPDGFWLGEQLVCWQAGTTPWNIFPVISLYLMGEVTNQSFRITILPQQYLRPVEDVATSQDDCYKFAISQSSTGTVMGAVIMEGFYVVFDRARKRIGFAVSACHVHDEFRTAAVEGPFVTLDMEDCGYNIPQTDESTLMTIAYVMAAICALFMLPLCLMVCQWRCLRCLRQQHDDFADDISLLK

| Compound | Papp at 18 h, 25 ug/ml (in vitro) [×10⁻⁶ cm/s] | inhibition (Beta-secretase 1 [1]) [%] | inhibition (Beta-secretase 1 [2]) [%] | IC50 (Beta-secretase 1 [3]) [µM] | Kd (Beta-secretase 1 [4]) [µM] | CC50 at 72 h [5] [µM] | inhibition (Beta-secretase 1 [6]) [%] |
| --- | --- | --- | --- | --- | --- | --- | --- |
| Clc1cccc(Cl)c1N=C1NCCN1 [CLONIDINE] | 5.9 | – | – | – | – | – | – |
| N#Cc1c(-c2cccc(C(F)(F)F)c2)nc(SCC(=O)Nc2nc(-c3cc(Cl)c(N)c(Cl)c3)cs2)[nH]c1=O | 0.88 | 13 | 86.1 | 13.4 | 1.33 | 47.7 | – |
| COc1cccc(-c2nc(SCC(=O)Nc3nc(-c4cc(Cl)c(N)c(Cl)c4)c[nH]3)[nH]c(=O)c2C#N)c1 | 0.34 | 87.7 | – | 3.2 | 0.169 | > 50 | 26.4 |
| CCOc1cccc(-c2nc(SCC(=O)Nc3nc(-c4cc(Cl)c(NC(C)=O)c(Cl)c4)cs3)[nH]c(=O)c2C#N)c1 | – | 2.5 | 4.7 | – | – | – | – |
| COc1cccc(-c2nc(SCC(=O)Nc3nc(-c4cccc(Br)c4)cs3)[nH]c(=O)c2C#N)c1 | 0.94 | 14.3 | 90.4 | 17.5 | 1.74 | > 50 | – |
| COc1cccc(-c2nc(SCC(=O)Nc3nc(-c4cc(Cl)c(NC(C)=O)c(Cl)c4)cs3)[nH]c(=O)c2C#N)c1 | – | 0.3 | 1.4 | – | – | – | – |
| N#Cc1c(-c2cccc(OC(F)(F)F)c2)nc(SCC(=O)Nc2nc(-c3cc(Cl)c(N)c(Cl)c3)cs2)[nH]c1=O | – | 6.1 | 39.6 | – | – | – | – |
| CCOc1cccc(-c2nc(SCC(=O)Nc3nc(-c4cc(Cl)c(N)c(Cl)c4)cs3)[nH]c(=O)c2C#N)c1 | 0.07 | 24.5 | 79.9 | 13.5 | – | > 50 | – |
| CN[C@@H]1C[C@H]2O[C@@](C)([C@@H]1OC)n1c3ccccc3c3c4c(c5c6ccccc6n2c5c31)C(=O)NC4 [STAUROSPORINE] | – | – | – | – | – | 0.00354 | – |
| COc1cccc(-c2nc(SCC(=O)Nc3nc(-c4cc(Cl)c(N)c(Cl)c4)cs3)[nH]c(=O)c2C#N)c1 | 0.11 | 58.9 | 91.8 | 7.7 | 0.861 | > 50 | – |
